According to publication PMC10241580, “Bioassay-Guided Isolation of Antiplasmodial Compounds from Hypericum lanceolatum Lam. (Hypericaceae) and Their Cytotoxicity and Molecular Docking” (BioMed Research International, 2023):
≈ marks a conversion by molar mass, not a printed value.

What was measured:
[1] = In vitro cytotoxicity MTT assay on P388 cell line; assay type: cell-based; settings: mouse, mean ± SD (n = 3)
Protocol: The in vitro study of the cytotoxicity potency of the isolated compounds was performed using the P388 (mouse leukaemia) cell line which was obtained from the American Type Culture Collection (ATCC) (Rockville, MD, USA). The cells were arranged in 96-well plates at a density of 10^4 cells per well containing […] of culture medium and then cultured for 24 h in the opti-MEM medium supplemented with 2 mM glutamine (Gibco, Grand Island, NY, USA), streptomycin (50 μg/mL), penicillin (50 U/mL), and 5% fetal calf serum (Gibco). After the cell cultures were maintained at 37°C in an atmosphere saturated with 5% CO2, the four tested compounds prepared at the concentration of 1 mg/mL by dissolving in the mixture DMSO/culture medium (1 : 9) were diluted in cell culture to reach the required concentrations (ranging from 1 to 100 μg/mL). The in vitro cytotoxic activity of the tested compounds was evaluated using the MTT assay for leukaemia cells.

Plasmodium parasite = tested on: Plasmodium parasite; design: method as in doi:10.1016/j.sajb.2022.11.021; settings: in words; cited from earlier work

Row | SMILES | IC50 ([1]; P388 cells) [mg/L] | IC50 ([1]; P388 leukaemia cells) [mg/L] | Antiplasmodial potency (Plasmodium parasite)
1 | O=c1c2ccc(O)cc2oc2cccc(O)c12 [Compound 1, 1,6-dihydroxyxanthone] | 17.6 ± 0.7 (≈ 77.1 µM) |  | 
2 | O=c1c2cc(O)c(O)cc2oc2cc(O)cc(O)c12 [Compound 2, norathyriol] |  | 21.8 ± 0.3 (≈ 83.8 µM) | 
3 | C=C(C)[C@@H]1CC[C@]2(C(=O)O)CC[C@]3(C)[C@H](CC[C@@H]4[C@@]5(C)CC[C@H](O)C(C)(C)[C@@H]5CC[C@]43C)[C@@H]12 [Compound 3, betulinic acid] | 6.8 ± 2.2 (≈ 14.9 µM) |  | 
4 | C[C@H]1[C@H](C)CC[C@]2(C(=O)O)CC[C@]3(C)C(=CC[C@@H]4[C@@]5(C)CC[C@H](O)C(C)(C)[C@@H]5CC[C@]43C)[C@H]12 [Compound 4, ursolic acid] |  | 2.5 ± 0.6 (≈ 5.47 µM) | weak
